According to ChEMBL document CHEMBL5465560, “Selectivity Literature for EUbOPEN Chemogenomic Library” (2024):

What was measured:
[1] = target: Bromodomain testis-specific protein (Homo sapiens) (UniProt Q58F21); assay: Selectivity interaction (Human bromodomain panel (DSF assay)) EUB0000233b BRDT
[2] = target: T1, Serine/threonine-protein kinase D2 (Homo sapiens) (UniProt Q9BZL6); assay: Selectivity interaction (KinomeScan (DiscoverX)) EUB0000595a PRKD2; details: at 10 µM
T1 sequence (whole entry): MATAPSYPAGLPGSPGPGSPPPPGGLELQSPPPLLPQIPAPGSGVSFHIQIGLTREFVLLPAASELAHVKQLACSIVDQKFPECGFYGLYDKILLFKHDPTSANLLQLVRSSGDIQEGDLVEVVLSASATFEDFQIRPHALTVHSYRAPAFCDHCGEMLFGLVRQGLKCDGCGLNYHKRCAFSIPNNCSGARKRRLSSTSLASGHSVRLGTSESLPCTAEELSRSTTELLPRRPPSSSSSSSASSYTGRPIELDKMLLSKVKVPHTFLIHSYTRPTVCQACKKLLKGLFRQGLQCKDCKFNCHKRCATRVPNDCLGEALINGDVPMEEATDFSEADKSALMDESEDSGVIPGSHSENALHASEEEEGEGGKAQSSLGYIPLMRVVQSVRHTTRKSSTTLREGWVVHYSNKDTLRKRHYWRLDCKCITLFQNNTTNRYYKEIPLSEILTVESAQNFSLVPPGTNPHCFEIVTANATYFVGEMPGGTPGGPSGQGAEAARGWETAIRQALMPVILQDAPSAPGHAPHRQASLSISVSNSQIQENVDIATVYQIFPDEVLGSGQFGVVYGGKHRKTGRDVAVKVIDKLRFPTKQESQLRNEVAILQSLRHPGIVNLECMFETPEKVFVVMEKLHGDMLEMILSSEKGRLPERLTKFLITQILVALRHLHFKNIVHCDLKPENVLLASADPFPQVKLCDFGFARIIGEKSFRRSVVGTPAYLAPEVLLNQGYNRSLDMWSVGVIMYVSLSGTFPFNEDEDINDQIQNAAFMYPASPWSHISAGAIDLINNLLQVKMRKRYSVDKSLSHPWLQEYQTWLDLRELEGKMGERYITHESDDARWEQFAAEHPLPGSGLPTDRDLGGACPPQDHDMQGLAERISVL

[3] = test system: NPM/ALK (Nucleophosmin/ALK tyrosine kinase receptor) (Homo sapiens), Q9UM73+P06748 [F1174L]; assay: (§1) Selectivity interaction (ProQinase) EUB0000171b ALK; format: protein assay
EML4-ALK (Homo sapiens) = EML4-ALK (Homo sapiens) (UniProt Q9UM73+Q9HC35); assay: as §1; format: protein assay
Sequence of EML4-ALK (Homo sapiens) (Q9HC35 whole entry partner): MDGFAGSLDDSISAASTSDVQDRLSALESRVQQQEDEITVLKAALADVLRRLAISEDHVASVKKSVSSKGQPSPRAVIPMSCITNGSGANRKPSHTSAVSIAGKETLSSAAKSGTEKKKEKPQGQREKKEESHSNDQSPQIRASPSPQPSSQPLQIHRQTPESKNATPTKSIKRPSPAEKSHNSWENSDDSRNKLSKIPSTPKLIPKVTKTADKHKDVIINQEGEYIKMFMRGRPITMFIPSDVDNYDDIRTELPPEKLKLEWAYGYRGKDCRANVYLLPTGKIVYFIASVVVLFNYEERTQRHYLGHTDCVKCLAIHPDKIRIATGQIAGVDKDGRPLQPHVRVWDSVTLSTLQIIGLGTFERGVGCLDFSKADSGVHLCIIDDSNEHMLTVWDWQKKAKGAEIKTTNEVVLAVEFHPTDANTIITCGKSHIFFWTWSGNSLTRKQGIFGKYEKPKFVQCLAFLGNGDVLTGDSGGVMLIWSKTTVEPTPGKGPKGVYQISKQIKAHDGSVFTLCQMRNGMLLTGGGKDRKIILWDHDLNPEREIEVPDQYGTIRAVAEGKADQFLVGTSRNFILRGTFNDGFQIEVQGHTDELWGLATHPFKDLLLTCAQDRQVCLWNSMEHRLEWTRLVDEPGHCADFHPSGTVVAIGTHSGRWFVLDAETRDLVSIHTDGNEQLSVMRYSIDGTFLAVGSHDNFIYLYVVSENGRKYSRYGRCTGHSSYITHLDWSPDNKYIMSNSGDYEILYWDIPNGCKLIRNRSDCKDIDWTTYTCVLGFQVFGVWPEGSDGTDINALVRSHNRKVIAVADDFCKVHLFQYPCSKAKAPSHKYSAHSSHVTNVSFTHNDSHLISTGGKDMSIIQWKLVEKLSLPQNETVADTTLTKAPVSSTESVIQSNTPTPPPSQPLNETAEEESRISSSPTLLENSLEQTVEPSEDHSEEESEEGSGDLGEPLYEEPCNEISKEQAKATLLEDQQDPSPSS
Sequence of EML4-ALK (Homo sapiens) (Q9UM73 19-1620 limits assumed): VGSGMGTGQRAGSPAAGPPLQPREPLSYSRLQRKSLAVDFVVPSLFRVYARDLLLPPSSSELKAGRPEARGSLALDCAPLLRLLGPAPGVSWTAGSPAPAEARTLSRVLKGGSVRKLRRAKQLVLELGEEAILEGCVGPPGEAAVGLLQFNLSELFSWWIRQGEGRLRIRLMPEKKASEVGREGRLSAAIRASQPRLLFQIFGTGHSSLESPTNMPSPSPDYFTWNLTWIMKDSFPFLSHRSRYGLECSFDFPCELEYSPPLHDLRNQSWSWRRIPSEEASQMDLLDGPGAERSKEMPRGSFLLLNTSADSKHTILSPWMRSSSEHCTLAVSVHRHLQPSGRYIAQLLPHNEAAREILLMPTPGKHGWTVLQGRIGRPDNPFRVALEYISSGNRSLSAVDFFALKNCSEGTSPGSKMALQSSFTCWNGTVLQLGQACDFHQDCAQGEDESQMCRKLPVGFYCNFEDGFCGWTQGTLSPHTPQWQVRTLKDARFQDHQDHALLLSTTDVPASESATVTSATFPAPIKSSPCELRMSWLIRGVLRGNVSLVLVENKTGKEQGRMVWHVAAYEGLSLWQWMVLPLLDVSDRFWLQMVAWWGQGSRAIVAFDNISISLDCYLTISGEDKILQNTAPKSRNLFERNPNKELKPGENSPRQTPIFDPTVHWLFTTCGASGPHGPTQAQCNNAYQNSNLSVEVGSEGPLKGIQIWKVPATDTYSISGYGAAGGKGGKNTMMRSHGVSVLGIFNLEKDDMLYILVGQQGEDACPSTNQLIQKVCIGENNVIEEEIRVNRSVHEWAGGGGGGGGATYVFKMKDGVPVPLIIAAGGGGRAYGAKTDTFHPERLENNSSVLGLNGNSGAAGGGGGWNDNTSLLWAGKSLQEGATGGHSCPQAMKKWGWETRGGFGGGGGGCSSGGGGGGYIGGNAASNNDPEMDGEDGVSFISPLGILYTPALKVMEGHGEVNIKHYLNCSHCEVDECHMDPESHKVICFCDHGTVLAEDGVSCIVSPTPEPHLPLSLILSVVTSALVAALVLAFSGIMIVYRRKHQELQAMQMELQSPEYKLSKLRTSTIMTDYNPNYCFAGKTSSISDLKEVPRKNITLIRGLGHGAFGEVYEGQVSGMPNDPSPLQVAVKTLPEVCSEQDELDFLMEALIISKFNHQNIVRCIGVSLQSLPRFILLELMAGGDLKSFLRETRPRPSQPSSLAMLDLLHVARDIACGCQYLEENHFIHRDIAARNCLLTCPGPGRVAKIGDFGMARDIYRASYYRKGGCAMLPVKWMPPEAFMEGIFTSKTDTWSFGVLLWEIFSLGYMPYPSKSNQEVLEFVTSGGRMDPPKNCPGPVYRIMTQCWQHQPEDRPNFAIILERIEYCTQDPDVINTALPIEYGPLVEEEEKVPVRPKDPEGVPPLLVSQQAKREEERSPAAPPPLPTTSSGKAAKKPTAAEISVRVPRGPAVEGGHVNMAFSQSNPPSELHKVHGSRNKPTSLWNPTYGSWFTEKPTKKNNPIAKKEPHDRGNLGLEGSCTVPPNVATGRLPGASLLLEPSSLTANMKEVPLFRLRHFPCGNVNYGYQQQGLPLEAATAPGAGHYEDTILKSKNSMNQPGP

[4] = test system: EML4-ALK (Homo sapiens), Q9UM73+Q9HC35 [UNDEFINED MUTATION]; assay: as §1; format: protein assay; details: at 5 µM
[5] = target: T2, Calcium/calmodulin-dependent protein kinase type IV (Homo sapiens) (UniProt Q16566); assay: Selectivity interaction (ProQinase) EUB0000171b CAMK4
T2 sequence (whole entry): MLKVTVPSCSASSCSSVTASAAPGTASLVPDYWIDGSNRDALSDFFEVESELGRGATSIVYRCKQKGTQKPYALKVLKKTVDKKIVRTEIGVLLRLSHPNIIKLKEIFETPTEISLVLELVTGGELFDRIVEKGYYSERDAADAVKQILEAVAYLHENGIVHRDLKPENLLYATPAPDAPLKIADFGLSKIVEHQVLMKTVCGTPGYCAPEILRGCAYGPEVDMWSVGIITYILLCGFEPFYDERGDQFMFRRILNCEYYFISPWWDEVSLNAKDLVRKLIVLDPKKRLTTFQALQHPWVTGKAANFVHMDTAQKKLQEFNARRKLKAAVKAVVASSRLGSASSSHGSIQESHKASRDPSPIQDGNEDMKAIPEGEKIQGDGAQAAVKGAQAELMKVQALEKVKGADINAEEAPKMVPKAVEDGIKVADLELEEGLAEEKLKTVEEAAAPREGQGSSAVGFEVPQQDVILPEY

[6] = target: Mast/stem cell growth factor receptor Kit (Homo sapiens, UniProt P10721); assay: Selectivity interaction (Kinase panel (Eurofins)) EUB0001564a KIT; details: at 1 µM
Sequence of Mast/stem cell growth factor receptor Kit (P10721 whole entry): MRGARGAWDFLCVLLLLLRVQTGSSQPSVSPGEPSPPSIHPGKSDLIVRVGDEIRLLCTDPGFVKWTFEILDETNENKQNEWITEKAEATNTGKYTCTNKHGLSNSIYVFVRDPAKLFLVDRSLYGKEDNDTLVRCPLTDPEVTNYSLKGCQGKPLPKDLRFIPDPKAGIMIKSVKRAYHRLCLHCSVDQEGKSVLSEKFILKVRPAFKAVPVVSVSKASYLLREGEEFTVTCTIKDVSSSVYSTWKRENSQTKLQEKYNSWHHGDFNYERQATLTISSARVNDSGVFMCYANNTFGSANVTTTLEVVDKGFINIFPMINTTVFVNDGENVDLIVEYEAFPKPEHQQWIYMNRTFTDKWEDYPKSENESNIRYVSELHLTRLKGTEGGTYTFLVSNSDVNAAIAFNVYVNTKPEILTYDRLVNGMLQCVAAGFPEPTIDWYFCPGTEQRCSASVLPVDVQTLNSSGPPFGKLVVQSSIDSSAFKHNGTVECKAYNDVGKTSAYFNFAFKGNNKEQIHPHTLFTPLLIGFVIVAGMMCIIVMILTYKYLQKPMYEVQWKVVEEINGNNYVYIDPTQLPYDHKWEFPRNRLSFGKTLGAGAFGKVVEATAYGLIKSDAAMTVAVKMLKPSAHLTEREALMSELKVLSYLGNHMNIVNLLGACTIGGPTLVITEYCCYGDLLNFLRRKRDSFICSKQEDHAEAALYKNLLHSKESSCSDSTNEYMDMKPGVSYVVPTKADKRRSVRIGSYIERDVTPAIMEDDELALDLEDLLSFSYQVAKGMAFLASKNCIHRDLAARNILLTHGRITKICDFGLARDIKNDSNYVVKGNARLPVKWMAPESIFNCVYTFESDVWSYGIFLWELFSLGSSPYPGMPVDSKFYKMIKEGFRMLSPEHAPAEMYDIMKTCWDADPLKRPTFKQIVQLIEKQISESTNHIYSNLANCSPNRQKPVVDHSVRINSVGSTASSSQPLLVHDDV

[7] = target: T3, Tyrosine-protein kinase TXK (Homo sapiens) (UniProt P42681); details: at 10 µM
T3 sequence (whole entry): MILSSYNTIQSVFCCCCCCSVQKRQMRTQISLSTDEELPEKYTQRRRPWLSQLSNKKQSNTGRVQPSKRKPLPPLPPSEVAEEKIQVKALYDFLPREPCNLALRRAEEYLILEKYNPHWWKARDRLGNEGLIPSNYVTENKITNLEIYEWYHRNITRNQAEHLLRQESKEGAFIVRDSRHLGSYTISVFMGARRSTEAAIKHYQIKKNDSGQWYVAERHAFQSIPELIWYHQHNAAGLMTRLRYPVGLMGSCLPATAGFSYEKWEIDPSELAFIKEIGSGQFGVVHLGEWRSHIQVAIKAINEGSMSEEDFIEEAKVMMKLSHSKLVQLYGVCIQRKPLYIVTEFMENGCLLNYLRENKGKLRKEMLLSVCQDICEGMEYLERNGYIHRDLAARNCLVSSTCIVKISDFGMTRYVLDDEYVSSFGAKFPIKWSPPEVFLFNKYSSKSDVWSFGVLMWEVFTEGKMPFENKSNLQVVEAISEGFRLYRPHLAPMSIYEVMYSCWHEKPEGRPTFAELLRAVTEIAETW

Work on CN(C)CCCOc1ccc(-c2cc(NCCCn3cccn3)nc(S(C)(=O)=O)n2)cc1 yielded a dTM [1] of less than 2 K.
COCC(=O)NC/C=C/c1ccc2ncnc(Nc3ccc(Oc4ccc(C)nc4)c(C)c3)c2c1 [CP-724714] was tested, and the % of control [2] was 97%.
C=CC(=O)Nc1cccc(C(=O)Nc2ccc(Nc3cc(-c4[nH]c(SC)nc4C)ccn3)cc2)c1 showed a % of control ([3]; at 1 µM) of 104%, a % of control ([3]; at 5 µM) of 106% and a % of control (EML4-ALK (Homo sapiens); at 1 µM) of 91%. It also gave a % of control (EML4-ALK (Homo sapiens); at 5 µM) of 89%, a % of control [4] of 80% and a % of control ([5]; at 1 µM) of 110%. For the same compound, the % of control ([5]; at 5 µM) was 91%.
Work on CC[C@@H](Nc1c(C#N)c(-c2ccc(-c3cccc(C)c3F)cc2)nc2cnccc12)C(=O)O [BAY-091] yielded a % of inhibition [6] of 22.3%.
CCN(CC)CCCCNc1ncc2cc(-c3cc(OC)cc(OC)c3)c(NC(=O)NC(C)(C)C)nc2n1 gave a % of control [7] of 100%.
